Test [1] addresses T1, Short transient receptor potential channel 4 (Mus musculus, UniProt Q9QUQ5).
T1 sequence (Q9QUQ5 whole entry): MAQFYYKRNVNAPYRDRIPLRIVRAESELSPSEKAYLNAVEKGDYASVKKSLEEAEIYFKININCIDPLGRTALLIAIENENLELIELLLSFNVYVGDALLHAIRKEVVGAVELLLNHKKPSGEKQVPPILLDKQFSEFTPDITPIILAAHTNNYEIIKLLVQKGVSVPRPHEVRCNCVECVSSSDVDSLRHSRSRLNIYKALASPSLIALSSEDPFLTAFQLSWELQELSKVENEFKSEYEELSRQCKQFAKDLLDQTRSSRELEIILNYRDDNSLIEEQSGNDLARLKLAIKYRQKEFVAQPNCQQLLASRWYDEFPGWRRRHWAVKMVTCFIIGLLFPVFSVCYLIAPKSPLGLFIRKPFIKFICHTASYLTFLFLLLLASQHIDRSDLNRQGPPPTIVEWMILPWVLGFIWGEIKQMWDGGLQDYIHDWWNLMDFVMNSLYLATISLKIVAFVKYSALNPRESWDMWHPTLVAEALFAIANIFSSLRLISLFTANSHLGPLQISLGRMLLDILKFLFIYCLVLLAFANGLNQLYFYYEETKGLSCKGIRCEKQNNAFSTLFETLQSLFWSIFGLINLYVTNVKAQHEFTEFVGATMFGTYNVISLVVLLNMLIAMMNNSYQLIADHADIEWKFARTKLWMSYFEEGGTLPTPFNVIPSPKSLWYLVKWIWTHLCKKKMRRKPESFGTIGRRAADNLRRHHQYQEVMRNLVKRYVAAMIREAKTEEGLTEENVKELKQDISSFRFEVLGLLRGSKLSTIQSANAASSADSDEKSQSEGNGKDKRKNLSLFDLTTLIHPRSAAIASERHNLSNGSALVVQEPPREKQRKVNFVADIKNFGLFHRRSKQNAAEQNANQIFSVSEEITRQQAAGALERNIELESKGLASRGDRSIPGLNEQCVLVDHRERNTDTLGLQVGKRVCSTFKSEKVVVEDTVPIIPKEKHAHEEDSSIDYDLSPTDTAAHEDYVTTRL
Description: SAR Analysis for the identification of selective inhibits of the transient receptor potential cation channel C4 (TRPC4): Automated Electrophysiology_2. [Related pubchem assays (depositor defined):AID2256]. It is filed as functional.

The target in test [2] is T1, Short transient receptor potential channel 4. Description: TRPC4 inhibitor concentration-response, dose response, cell-based, HEK293 TRPC4/mu-opioid, DAMGO stimulus, Fluo-4 (AID 492994). It is filed as functional.
Test [3] in a line: inhibitors of firefly luciferase expression or activity, dose response, H4 neuroglioma cells, luminescence (AID 1990). It is filed as functional, cell-based.
Test [4] in a line: luciferase reporter signal reduction – luminescence, H4-C neuroglioblastoma cells, dose response (AID 2458).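 Also: H4 neuroglioblastoma cells stably carrying a luciferase reporter gene fusion.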 It is filed as functional, cell-based. (Reporter assays use an easily measured gene product as a stand-in for the process of interest.)
In test [5] the test system is BJ. As to the kind of experiment: cytotoxicity toward BJ-TERT fibroblasts, dose response, cell-based, RAS-independent, luminescence (AID 1933). The following applies: Homo sapiens, BJ. It counts as functional, Homo sapiens.
The nature of test [6]: cells. It counts as functional, cell-based.
Test [7] is described as follows: Luminescence Cell-Based Dose Response HTS to Identify Inhibitors of 5'UTR Stem-Loop Driven Prion Protein mRNA Translation in H4 Neuroglioblastoma Cells. [Related pubchem assays: 1827 (Project Summary), 1813 (Primary HTS)]. It counts as functional.
A short description of test [8]: inhibitors of SNCA 5'UTR-driven reporter translation, confirmation, H4 neuroglioma cells, luminescence (AID 1988). It counts as functional, cell-based.
For test [9], the system named is BJ. As to the kind of experiment: cells. As to conditions: Homo sapiens, BJ. It counts as functional, cell-based, Homo sapiens.
Test [10] in a line: cytotoxicity toward DRD oncogenic fibroblasts, dose response, cell-based, non-viral oncogenic, luminescence (AID 1934). It is filed as functional. As to conditions: Homo sapiens.
Test [11] in a line: inhibitors of SNCA 5'UTR-driven translation, confirmation, luminescence, H4 neuroglioblastoma cells, dose confirmation (AID 2454).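 Also: H4 neuroglioblastoma cells carrying an alpha-synuclein 5'UTR luciferase reporter; potency for inhibition of the luciferase signal.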 It is filed as functional, cell-based.
Test [12] in a line: cytotoxicity in HEK-293T cells, dose response, cytotoxicity control for TCR NF-kB inhibitor project, luminescence, T-cell screen hits (AID 489026).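 Also: cells exposed to compound about 14 hours before the viability readout.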 It counts as functional, cell-based.
Test [13] has as its target T2, Microphthalmia-associated transcription factor (Homo sapiens, UniProt O75030).
T2 sequence (O75030 whole entry): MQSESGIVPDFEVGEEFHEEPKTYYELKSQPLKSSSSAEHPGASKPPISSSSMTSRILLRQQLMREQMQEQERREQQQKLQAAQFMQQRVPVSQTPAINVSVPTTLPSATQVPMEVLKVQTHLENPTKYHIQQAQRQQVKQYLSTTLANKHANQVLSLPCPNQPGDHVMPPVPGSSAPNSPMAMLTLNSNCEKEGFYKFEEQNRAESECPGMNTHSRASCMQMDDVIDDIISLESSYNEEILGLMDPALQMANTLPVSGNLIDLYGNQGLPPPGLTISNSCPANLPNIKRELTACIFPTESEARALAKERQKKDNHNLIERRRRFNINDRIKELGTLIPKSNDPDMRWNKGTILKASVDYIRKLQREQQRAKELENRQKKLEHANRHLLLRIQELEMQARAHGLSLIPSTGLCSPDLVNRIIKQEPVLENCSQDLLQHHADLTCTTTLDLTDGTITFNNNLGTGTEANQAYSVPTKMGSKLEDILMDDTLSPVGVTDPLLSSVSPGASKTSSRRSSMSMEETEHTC
As to the kind of experiment: TRPM1 promoter luciferase signal decrease, dose response, MITF inhibitor project, cell-based, SK-MEL-5, cherry-picked, set 3 (AID 493073).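 Also: SK-MEL-5 melanoma cells with luciferase driven by the MITF target TRPM1 promoter.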 It is filed as functional.

Test [14] concerns A-375. Description: MITF: Counter assay: A375 proliferation Measured in Cell-Based System Using Plate Reader - 2084-03_Inhibitor_Dose_DryPowder_Activity. [Related pubchem assays (depositor defined):AID488944]. It counts as functional. As to conditions: Homo sapiens.
For test [15], the system named is A-375. As to the kind of experiment: A375 melanoma cell viability reduction, dose response, counter-screen for MITF modulator project, cherry-pick samples, set 2 (AID 540335). It counts as functional, cell-based. The following applies: Homo sapiens. On the technique in general: Counterscreens check selectivity or assay interference.
Test [16] is described as follows: cells. It is filed as functional, cell-based. This is another data set of the same source.
The target in test [17] is Nuclear receptor subfamily 0 group B member 1 (Homo sapiens, UniProt P51843). It counts as functional, cell-based.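 Also: HEK293T cells transfected with SF-1 and DAX-1 plus StAR promoter luciferase reporter.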
Another test has as its target Paired box protein Pax-8 (Homo sapiens, UniProt Q06710). As to the kind of experiment: inhibitors of PAX8-driven TPO luciferase reporter, dose response, RMG-I cells, cherry-pick (AID 687027).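 Also: luciferase reporter driven by Pax8 target thyroperoxidase promoter measured by SteadyGlo luminescence.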 It counts as functional, cell-based.
A short description of test [18]: PAX2 cell-based inhibition, dose response, selectivity assay for PAX8 inhibitor project, plate reader, dry powder samples (AID 743048).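 Also: HEK293 cells carrying a WT1 promoter luciferase reporter driven by expressed Pax2; potency is for inhibition of Pax2 driven reporter signal.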 It is filed as functional.
A short description of test [19]: cytotoxicity in COV362 ovarian cancer cells, dose response, cytotoxicity control for PAX8 inhibitor project, cell-based, plate reader, dry powder, SA12 (AID 743144). It counts as functional.
Test [20] in a line: IOSE-T80 ovarian epithelial cell cytotoxicity, dose response, cytotoxicity control for PAX8 inhibitor project, plate reader, dry powder samples (AID 743045). It counts as functional, cell-based.
Test [21] is described as follows: A2780 ovarian cancer cell cytotoxicity, dose response, cytotoxicity control, plate reader, dry powder samples (AID 743046). It counts as functional, cell-based.
The nature of test [22]: NIH:OVCAR-3 ovarian cancer cell cytotoxicity, dose response, PAX8 inhibitor project, plate reader, dry powder samples (AID 743044). It counts as functional, cell-based.
A short description of test [23]: PAX5 activity inhibitors, dose response, selectivity assay for PAX8 inhibitor project, cell-based, plate reader, dry powder samples (AID 743047).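 Also: HEK293 cells carrying a Pax5 driven CD19 promoter luciferase reporter; potency of inhibitors that lower reporter luminescence.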 It is filed as functional.
Test [24] is described as follows: IGROV1 ovarian cancer cell cytotoxicity, dose response, PAX8 inhibitor project, plate reader, dry powder samples (AID 743043). The following applies: IGROV-1. It is filed as functional, cell-based.
Test [25] is described as follows: cytotoxicity in OVCAR4 cells, dose response, cytotoxicity control for PAX8 inhibitor project, cell-based, plate reader, dry powder, SA11 (AID 743150). It is filed as functional. The following applies: OVCAR-4.
Test [26] can be described thus: cytotoxicity in COV434 cells, dose response, cytotoxicity control for PAX8 inhibitor project, cell-based, plate reader, dry powder, SA7 (AID 743145). It counts as functional.
A short description of test [27]: cytotoxicity in OV-90 ovarian cancer cells, dose response, PAX8 inhibitor project, cell-based, plate reader, dry powder, SA8 (AID 743149). It is filed as functional.
Test [28] in a line: cytotoxicity dependent on PAX8, dose response, cell-based, plate reader, dry powder (AID 743049). It is filed as functional.
The nature of test [29]: microbe, parasite or virus in culture. The following applies: Mycobacterium tuberculosis. It is filed as functional.
In test [30] the target is Glucose-6-phosphate 1-dehydrogenase (Homo sapiens, UniProt P11413). As to the kind of experiment: human G6PD enzyme inhibitors, dose response, selectivity assay for P. falciparum G6PD inhibitor project, biochemical, fluorescence (AID 504792). It is filed as functional.
Test [31] has as its target Heat shock protein HSP 90-alpha (Homo sapiens, UniProt P07900). It is filed as functional, organism-based.
For test [32], the target named is Voltage-gated inwardly rectifying potassium channel KCNH2 (Homo sapiens, UniProt Q12809). The following applies: Potency.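 Also: confirmatory quantitative high-throughput screen measuring inhibition of hERG channel activity.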
For test [33], the target named is Lysine-specific demethylase 4C (Homo sapiens, UniProt Q9H3R0). Description: GASC-1 (JMJD2C) histone demethylase inhibitors, dose response, biochemical, DELFIA europium, cherry-picked samples (AID 488835). It counts as functional.

Calls of active or inactive are those of the source.

Chain of Nuclear receptor subfamily 0 group B member 1 (P51843 whole entry): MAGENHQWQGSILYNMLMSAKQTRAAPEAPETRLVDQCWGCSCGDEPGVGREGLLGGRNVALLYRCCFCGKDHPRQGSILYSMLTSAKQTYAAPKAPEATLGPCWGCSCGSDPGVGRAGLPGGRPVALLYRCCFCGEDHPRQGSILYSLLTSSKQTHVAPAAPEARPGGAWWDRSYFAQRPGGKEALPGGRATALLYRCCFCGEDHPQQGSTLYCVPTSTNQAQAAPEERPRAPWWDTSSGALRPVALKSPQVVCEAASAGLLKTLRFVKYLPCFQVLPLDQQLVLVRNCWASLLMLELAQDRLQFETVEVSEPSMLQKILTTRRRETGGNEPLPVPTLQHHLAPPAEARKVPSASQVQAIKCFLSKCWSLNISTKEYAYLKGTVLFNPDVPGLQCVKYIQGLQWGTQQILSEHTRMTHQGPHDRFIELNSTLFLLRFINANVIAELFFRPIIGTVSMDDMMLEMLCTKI
Chain of Voltage-gated inwardly rectifying potassium channel KCNH2 (Q12809 whole entry): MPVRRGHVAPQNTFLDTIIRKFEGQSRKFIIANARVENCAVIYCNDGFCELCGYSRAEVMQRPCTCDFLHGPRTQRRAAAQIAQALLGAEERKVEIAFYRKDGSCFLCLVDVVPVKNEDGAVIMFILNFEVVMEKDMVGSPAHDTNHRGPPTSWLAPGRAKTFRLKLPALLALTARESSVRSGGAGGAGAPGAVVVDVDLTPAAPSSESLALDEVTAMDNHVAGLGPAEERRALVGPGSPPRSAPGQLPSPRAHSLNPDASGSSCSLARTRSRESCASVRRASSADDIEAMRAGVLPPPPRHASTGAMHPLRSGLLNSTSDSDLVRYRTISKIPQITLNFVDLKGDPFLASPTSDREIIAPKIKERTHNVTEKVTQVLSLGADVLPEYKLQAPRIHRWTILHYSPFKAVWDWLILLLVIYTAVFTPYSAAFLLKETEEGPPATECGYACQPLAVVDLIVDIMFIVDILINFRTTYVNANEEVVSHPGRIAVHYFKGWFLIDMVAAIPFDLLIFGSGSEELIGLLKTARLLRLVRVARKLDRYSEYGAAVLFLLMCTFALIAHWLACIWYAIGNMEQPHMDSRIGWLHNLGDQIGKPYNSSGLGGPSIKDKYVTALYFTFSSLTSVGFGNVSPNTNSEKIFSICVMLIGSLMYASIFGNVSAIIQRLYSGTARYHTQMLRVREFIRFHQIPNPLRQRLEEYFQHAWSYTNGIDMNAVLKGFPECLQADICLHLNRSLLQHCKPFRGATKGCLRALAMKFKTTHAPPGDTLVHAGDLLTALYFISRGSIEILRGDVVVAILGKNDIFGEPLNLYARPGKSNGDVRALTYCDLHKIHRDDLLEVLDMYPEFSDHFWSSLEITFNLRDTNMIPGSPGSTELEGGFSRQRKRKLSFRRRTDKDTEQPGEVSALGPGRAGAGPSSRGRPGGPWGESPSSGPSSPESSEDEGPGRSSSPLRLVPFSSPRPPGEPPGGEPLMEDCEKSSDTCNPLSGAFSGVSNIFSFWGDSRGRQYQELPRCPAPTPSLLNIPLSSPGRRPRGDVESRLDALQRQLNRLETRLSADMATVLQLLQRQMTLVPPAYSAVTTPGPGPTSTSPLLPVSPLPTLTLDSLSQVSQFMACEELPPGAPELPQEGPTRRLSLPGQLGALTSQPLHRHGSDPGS
Chain of Glucose-6-phosphate 1-dehydrogenase (P11413 whole entry): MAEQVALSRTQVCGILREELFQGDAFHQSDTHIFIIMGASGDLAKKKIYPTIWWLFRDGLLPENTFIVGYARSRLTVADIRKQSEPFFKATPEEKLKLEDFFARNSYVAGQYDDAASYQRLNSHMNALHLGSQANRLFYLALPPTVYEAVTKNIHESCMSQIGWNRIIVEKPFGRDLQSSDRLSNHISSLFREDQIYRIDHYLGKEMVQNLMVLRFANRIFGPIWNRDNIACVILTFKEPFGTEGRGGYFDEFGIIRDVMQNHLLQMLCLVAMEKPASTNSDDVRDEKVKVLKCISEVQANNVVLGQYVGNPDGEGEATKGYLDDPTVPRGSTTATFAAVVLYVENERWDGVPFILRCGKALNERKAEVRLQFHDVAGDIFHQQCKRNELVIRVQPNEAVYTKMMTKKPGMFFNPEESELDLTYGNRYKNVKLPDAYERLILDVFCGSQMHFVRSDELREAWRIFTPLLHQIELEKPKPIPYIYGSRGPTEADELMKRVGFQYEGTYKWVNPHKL
Chain of Lysine-specific demethylase 4C (Q9H3R0 whole entry): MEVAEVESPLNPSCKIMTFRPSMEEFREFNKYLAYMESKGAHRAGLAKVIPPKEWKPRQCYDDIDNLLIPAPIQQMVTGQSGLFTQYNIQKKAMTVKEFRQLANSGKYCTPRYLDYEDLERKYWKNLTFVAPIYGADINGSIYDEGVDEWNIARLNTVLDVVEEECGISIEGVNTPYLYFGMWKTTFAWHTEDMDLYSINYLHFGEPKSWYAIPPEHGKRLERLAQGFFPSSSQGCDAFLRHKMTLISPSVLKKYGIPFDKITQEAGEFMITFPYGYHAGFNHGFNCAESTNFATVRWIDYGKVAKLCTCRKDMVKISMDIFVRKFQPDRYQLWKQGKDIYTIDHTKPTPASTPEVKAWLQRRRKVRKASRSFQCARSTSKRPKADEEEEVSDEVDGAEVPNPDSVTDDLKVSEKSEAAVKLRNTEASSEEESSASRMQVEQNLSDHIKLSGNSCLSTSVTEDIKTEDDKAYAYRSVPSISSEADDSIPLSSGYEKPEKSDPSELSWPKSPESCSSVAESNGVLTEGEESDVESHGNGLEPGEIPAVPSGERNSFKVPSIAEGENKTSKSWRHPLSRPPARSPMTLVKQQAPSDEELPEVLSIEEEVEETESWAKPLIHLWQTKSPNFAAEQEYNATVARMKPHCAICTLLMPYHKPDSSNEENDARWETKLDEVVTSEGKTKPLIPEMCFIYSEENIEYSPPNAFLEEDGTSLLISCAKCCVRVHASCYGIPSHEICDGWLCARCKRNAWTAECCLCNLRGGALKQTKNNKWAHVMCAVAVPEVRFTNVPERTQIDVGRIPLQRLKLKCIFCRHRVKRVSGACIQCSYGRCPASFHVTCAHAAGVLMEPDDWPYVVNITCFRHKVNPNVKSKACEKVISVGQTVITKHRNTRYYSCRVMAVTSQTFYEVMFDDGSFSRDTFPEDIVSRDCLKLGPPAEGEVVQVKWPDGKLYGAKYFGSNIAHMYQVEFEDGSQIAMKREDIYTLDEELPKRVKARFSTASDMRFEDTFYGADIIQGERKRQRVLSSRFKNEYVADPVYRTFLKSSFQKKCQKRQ
Chain of Paired box protein Pax-8 (Q06710 whole entry): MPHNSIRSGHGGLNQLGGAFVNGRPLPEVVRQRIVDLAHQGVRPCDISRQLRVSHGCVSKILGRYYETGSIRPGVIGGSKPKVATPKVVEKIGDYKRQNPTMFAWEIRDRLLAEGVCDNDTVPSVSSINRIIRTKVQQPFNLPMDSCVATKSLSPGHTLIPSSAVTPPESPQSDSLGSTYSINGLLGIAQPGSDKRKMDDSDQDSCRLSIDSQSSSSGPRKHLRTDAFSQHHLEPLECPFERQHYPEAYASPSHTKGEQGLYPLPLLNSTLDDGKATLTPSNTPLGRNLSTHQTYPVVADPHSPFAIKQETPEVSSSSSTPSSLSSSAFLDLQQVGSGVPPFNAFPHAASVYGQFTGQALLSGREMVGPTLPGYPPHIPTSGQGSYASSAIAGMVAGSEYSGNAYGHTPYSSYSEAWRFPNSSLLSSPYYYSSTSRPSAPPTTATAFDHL

As for `CCc1ccc2nc(N3CCCCCC3)cc(C)c2c1`, the IC50 (commonly the concentration that inhibits the measured activity by half) in test [1] was 3.3 µM (active); in test [2], 7.37 µM (active).

With `COc1cccc(N2CCN(C(=O)c3ccc(C[S+]([O-])c4ccccc4Cl)o3)CC2)c1` (centres undefined), the 50% effective concentration (EC50) (usually the concentration that produces a half-maximal response) is < 0.1 µM (active) in [3]; 0.202 µM (active) in [4]; 0.214 µM (active) with BJ [5]; 0.345 µM (active) in “cells [6]”; < 0.1 µM (active) in test [7]; < 0.1 µM (active) in [8]. Also, the EC50 is 37.7 µM (inconclusive) in the test with BJ [9], 0.225 µM (active) in test [10] and 0.354 µM (active) in [11]. Further, the IC50 in test [12] was 58 µM (inactive); in the test “cells [16]”, > 67.6 µM (inactive); in test [17], > 67.6 µM (inactive). Also, the concentration at half-maximal activity (AC50) (as a rule, the concentration at which the activity in the assay is half-maximal) in test [13] was 0.894 µM (active); with A-375 [14], > 35 µM (active); in the test on A-375 [15], > 35 µM (active); at Paired box protein Pax-8 it was 0.921 µM (active); in test [18], 37.5 µM (active); in [19], 2.03 µM (active). Besides, the AC50 in test [20] is 0.537 µM (active); in test [21], 5 µM (active); in [22], 0.478 µM (active); in test [23], 3.98 µM (active); in test [24] it was 72 µM (active); in test [25], 0.646 µM (active). For the same compound, the AC50 was 0.684 µM (active) in [26], 2.03 µM (active) in test [27] and 22 µM (active) in test [28].

Regarding `CCCCCCCCn1sccc1=O`, the CC50 in test [29] was 11.3 µM (active). The IC50 in [30] is 59.3 µM (inactive). In addition, the results for the concentration at half-maximal activity (AC50) in [31] and in test [32] were 0.649 µM (active) and 44.7 µM (inconclusive), respectively.

With `Cc1ccc(-c2csc(NC(=O)CSc3nc(C)cc(O)n3)n2)cc1`, in test [33], the concentration at half-maximal activity (AC50) is 10.6 µM (active).

The values are drawn from ChEMBL document CHEMBL1201862, “PubChem BioAssay data set” (2004).
